Test results: US8524682B2, “Compositions and methods for inhibiting EZH2” (The Regents of the University of Michigan, priority 2007, dated 2013)

What was measured:
Type in all cases: cell-based
EZH2 [1] = molecular target: T1, EZH2 (Homo sapiens, UniProt Q15910); test: E-cadherin promoter-luciferase reporter high throughput screen in EZH2 adenovirus infected cells; conditions: final compound concentration about 5 μM, 24 hours
T1 construct: expressed in transfected cells
Description: A high throughput screening protocol was used to identify small molecule inhibitors of EZH2. Primary breast cancer cells were transfected with the E-cadherin promoter luciferase reporter gene and infected with the EZH2 adenovirus to suppress luciferase expression 48 hours prior to compound addition. Eighteen hours prior to compound addition, cells were trypsinized and distributed into 384-well plates in 60 μl of medium using the Multidrop equipment. At time zero, compounds were transferred from 1.5 mM DMSO stocks to the cell plates in a final compound concentration of about 5 μM. […] After 24 hours, the expressed luciferase activity was measured by adding 50 μl of the medium and 10 μl of Steady-Glo luciferase reagent (Promega). Sample plates were read in the Pherastar plate reader (BMG Labtech). Each plate in the screen contains 320 compounds to be tested plus 64 control wells placed in the outer two columns on each side of the plate (>50,000 compounds are screened). […] More than 4000 small molecules were screened, which included synthetic chemicals as well as natural products that are available in the Center for Chemical Genomics (CCG) library at the University of Michigan.

EZH2 [2] = molecular target: T1, EZH2; test: Quantitative SYBR green RT-PCR of E cadherin transcripts in EZH2 overexpressing cells
Description: A, Chemical structure of the flavonoid isoliquiritigenin. B, Quantitative SYBR green RT-PCR of EZH2 and E cadherin transcripts in cell lines over expressing EZH2 and control adenoviruses. RT-PCR on each sample was performed in duplicate, and a ratio was calculated relative to the housekeeping genes GAPDH. Transcripts were also measured in cells that were treated with isoliquiritigenin or other small molecules.
(§1) A, Dose response of isoliquiritigenin on inhibiting EZH2 mediated repression. B, A reconstituted basement membrane invasion chamber assay was used to assess the invasion of breast epithelial cell line infected with EZH2 and control adenoviruses as well as SET domain mutant EZH2 adenovirus. EZH2 treated cells were also treated with SAHA, the HDAC inhibitor and isoliquiritigenin, the small molecule inhibitor of EZH2 and the control small molecule phloretin.

[3] = system: HME cells overexpressing EZH2; test: Basement membrane invasion chamber assay, breast cell line HME overexpressing EZH2
Description: as §1

T1 sequence (Q15910 whole entry): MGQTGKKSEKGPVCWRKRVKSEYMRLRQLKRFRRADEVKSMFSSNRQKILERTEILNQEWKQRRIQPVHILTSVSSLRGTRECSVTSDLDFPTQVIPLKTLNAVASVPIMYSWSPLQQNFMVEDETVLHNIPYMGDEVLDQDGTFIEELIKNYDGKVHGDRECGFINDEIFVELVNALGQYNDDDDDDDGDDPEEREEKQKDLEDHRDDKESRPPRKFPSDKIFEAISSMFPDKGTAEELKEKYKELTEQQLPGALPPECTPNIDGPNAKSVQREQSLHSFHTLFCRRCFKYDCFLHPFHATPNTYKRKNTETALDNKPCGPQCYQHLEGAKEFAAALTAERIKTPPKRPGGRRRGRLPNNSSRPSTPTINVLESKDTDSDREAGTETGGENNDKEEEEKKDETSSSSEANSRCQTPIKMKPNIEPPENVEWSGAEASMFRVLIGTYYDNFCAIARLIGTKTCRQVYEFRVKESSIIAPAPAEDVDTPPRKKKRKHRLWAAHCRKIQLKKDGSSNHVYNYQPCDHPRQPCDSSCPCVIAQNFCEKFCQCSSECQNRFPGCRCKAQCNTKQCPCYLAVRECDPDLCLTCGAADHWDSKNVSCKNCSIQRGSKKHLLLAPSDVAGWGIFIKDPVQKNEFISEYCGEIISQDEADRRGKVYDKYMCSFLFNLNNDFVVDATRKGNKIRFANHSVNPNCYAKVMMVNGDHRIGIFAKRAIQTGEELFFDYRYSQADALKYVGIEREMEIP

## O=C(/C=C/c1ccc(O)cc1)c1ccc(O)cc1O [isoliquiritigenin]
EZH2 [1]
  EZH2 inhibitory activity: potent small molecule inhibitor of EZH2 activity
EZH2 [2]; RT-PCR, cells over expressing EZH2
  inhibition of EZH2 mediated E cadherin repression: significantly inhibit
EZH2 [2]; dose response
  concentration that optimally inhibits the EZH2 mediated E cadherin repression: 16 µM
[3]
  inhibition of invasion mediated by EZH2 overexpression: inhibited this invasion
